Results from patent US7094581B2, “Hyaluronan synthases and methods of making and using same” (The Board of Regents of the University of Oklahoma, priority 1998, dated 2006).
Where “and” joins values, the source holds several entries; their conditions need not be identical. Equal values may be shown once.

Key:
seHAS = test: Effect of sulfhydryl reagents on seHAS activity in E. coli membranes; type: biochemical, Streptococcus equisimilis; conditions: E. coli membranes with seHAS-H6, 4° C. 1 h, 5 mM NEM, 5 mM IAA, 0.5 mM 5,5′-dithiobis-(2-nitrobenzoic acid), 0.05 mM methylmethanethiosulfonate, 10 mM sodium arsenite
Description: (§1) SeHAS is the smallest HAS protein (417 amino acids) and contains four Cys residues. […] To explore the possible role of cysteines in the function of HAS, the activities of seHAS and spHAS were assayed in the presence of different sulfhydryl reagents (Table II). […] The inhibition of each HAS by NEM was examined in more detail with respect to time of incubation and NEM concentration (FIG. 2).
(§2) E. coli SURE cells transformed with plasmids containing various seHAS mutants were grown in LB medium with vigorous shaking at 32° C. to A600 ˜0.8 and induced with 1 mM isopropyl-β-thiogalactoside for 3 h. Cells were harvested and membranes were prepared as described previously. The kinetic constants for HAS were determined at 37° C. in 100 μl of 50 mM sodium and potassium phosphate, pH 7.0, with 20 mM MgCl2, 1 mM DTE, 240 μM UDP-GIcUA, 0.7 μM UDP-[^14C]GIcUA and 0.6–1.0 mM UDP-GIcNAc. in 100 μl of 25 mM sodium and potassium phosphate, pH 7, containing 50 mM NaCl, 20 mM MgCl2, 1 mM dithiothreitol, 1 mM UDP-GIcUA, 0.68 μM UDP-GIcUA and 1 mM UDP-GIcNAc. Some assays also contained 0.1 mM EDTA and 20% glycerol (v/v). To initiate the enzyme reaction, ˜0.5–40 μg of membrane protein was added and the mixtures were gently shaken in a MicroMixer X-36 (Tiatec) at 30° C. for 1–2 h. Reactions were terminated by the addition of SDS to a final concentration of 2% (w/v). The incorporation of radioactive [^14C]GIcUA was determined by descending paper chromatography and the Km and Vmax values were determined as described by Tlapak-Simmons et al (1999b). Data were analyzed by the methods of Michaelis-Menton or Hill. Protein content was determined by the method of Bradford using bovine serum albumin as the standard. All Cys-mutant or sulfhydryl-treated seHAS samples were assayed in duplicate or triplicate using two or three independent membrane preparations. […] All enzyme assays were performed under conditions that were linear with respect to time and protein concentration.
(§3) Stock solutions (10–100 mM) of NEM, IAA or other sulfhydryl reagents were made in PBS, pH 7.0. Suspensions of membranes containing seHAS or spHAS were incubated with 0–5 mM of the sulfhydryl reagent at 4° C. and the reactions were stopped by adding DTE to a final concentration of 10 mM. The membranes were then assayed for HAS activity as described above.

[1] = test system: triple Cys-mutants of seHAS; test: NEM inactivation of triple Cys-mutants of seHAS and protection by substrates; type: biochemical, Streptococcus equisimilis; conditions: 5 mM NEM, 4° C., 10 min
Description: FIG. 6. Substrates protect triple Cys-mutants of seHAS from inactivation by NEM. E. coli membranes containing the indicated triple Cys-mutant of seHAS (each with a single remaining Cys residue) were treated at 4° C. for 10 min with no additions (control; 100% values) or with 5 mM NEM alone and in the presence of either UDP, UDP-GIcUA or UDP-GIcNAc. Unreacted Nem was then quenched and HAS activity was determined. Results are not shown for the mutant containing only Cys^367, since NEM inactivation of this mutant is ˜10% and all values were essentially identical.
Although the 4 Cys residues in seHAS (positions 226, 262, 281 and 367) are roughly conserved in all Class I HAS family members, the Cys-null mutants of seHAs and spHAS are active, with minimal changes in their kinetics compared to wild type. It is also shown here that neither HAS contains disulfide bonds. To understand why these four cysteines are, nevertheless, largely conserved within the Class I HASs, NEM sensitivity was examined (i.e., the time- and dose-dependent inhibition) of all possible Cys-to-Ala mutants of seHAS. […] Cys281 appears not to be within a UDP-sugar binding site, since the triple Cys-mutant seHAS (A3C)C281 was not protected from NEM inhibition by UDP, UDP-GIcUA or UDP-GIcNAc (FIG. 6).
Stock solutions (10–100 mM) of NEM, IAA or other sulfhydryl reagents were made in PBS, pH 7.0. […]

spHAS = molecular target: T1, spHAS (Streptococcus pyogenes serotype M6, UniProt Q5X9A9); test: Effect of sulfhydryl reagents on spHAS activity in E. coli membranes; type: biochemical; conditions: E. coli membranes with spHAS-H6, 4° C. 1 h, 5 mM NEM, 5 mM IAA, 0.5 mM 5,5′-dithiobis-(2-nitrobenzoic acid), 0.05 mM methylmethanethiosulfonate, 10 mM sodium arsenite
T1 construct: made in house; host or cells: E. coli SURE cells (isolated membranes)
T1 sequence (Q5X9A9 1-419): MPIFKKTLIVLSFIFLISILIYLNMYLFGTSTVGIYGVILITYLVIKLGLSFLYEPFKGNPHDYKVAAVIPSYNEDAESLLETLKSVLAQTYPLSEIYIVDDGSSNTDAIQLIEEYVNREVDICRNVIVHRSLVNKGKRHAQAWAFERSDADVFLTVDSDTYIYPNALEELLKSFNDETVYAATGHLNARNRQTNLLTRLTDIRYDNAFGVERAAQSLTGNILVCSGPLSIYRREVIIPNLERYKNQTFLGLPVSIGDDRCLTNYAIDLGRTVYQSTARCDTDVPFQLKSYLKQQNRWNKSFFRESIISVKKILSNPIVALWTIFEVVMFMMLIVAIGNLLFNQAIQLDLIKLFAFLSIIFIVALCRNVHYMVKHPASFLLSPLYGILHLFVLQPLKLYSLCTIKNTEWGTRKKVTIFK
Description: as §1, §2, §3

SMILES: CCN1C(=O)C=CC1=O [N-ethylmaleimide]
- Inhibition of HAS Activity (% relative to control), seHAS (seHAS): 70 ± 4.8%
- Inhibition of HAS Activity (% relative to control), seHAS (seHAS; listed as NEM): ~70% and 60–70%
- NEM inactivation of the seHAS mutant containing only Cys^367 [1]: ~10%
- Inhibition of HAS Activity (% relative to control), spHAS (spHAS): 60 ± 3.5%
- Inhibition of HAS Activity (% relative to control), spHAS (spHAS; listed as NEM): 60–70%
